≈ marks a conversion by molar mass, not a printed value.
Assays:
[1] = Intrinsic clearance in rat hepatocytes measured per 10^6 cells; assay type: ADME, cell-based, Hepatocyte
[2] = Oral bioavailability in C57BL/6 mouse at 10 mg/kg measured upto 24 hrs by LC-MS/MS analysis; assay type: ADME, organism-based; settings: in vivo
[3] = target: T1, Cytochrome P450 1A2 (Homo sapiens, UniProt P05177); test: Inhibition of CYP1A2 in human liver microsomes incubated for 10 mins by LC-MS/MS analysis; assay type: ADME, Microsome
T1 sequence (P05177 whole entry): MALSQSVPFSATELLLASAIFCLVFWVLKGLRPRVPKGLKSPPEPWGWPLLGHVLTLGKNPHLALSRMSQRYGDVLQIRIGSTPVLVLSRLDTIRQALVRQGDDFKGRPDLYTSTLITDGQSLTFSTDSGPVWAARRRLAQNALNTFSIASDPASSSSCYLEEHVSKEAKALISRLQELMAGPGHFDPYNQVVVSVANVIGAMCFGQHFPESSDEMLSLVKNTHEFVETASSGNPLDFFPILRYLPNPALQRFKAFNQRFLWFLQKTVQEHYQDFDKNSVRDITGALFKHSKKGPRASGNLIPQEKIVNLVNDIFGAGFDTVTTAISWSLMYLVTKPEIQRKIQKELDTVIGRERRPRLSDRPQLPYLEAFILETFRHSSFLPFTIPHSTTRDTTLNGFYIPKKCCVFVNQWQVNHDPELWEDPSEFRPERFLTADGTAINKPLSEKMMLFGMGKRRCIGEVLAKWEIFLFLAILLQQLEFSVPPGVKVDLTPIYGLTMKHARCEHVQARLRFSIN

[4] = Plasma protein binding in dog assessed as free fraction at 1 uM by equilibrium dialysis based LC-MS/MS analysis; assay type: ADME, cell-free, Canis lupus familiaris
[5] = target: Dihydroorotate dehydrogenase (quinone), mitochondrial (Homo sapiens, UniProt Q02127); test: Binding affinity to His fused human DHODH expressed in Escherichia coli by surface plasmon resonance assay
[6] = target: T2, Cytochrome P450 2C8 (Homo sapiens, UniProt P10632); test: Inhibition of CYP2C8 in human liver microsomes incubated for 10 mins by LC-MS/MS analysis; assay type: ADME, Microsome
T2 sequence (P10632 whole entry): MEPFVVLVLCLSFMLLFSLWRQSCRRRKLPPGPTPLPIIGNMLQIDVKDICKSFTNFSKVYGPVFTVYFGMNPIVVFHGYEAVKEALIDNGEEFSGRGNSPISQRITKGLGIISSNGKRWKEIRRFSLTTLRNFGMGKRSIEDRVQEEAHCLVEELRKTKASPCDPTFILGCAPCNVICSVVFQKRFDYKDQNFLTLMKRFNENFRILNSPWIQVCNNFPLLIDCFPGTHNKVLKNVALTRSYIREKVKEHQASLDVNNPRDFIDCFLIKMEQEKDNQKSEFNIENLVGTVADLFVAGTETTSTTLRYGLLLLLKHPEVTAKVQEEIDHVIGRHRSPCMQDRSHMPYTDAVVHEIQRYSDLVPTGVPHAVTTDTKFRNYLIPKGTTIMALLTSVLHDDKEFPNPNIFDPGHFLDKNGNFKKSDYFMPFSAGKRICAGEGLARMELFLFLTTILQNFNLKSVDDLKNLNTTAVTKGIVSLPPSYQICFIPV

[7] = target: Cytochrome P450 3A4 (Homo sapiens, UniProt P08684); test: Inhibition of CYP3A4 in human liver microsomes using midazolam as substrate measured after 5 mins by LC-MS/MS analysis; assay type: ADME, Microsome
[8] = target: Dihydroorotate dehydrogenase (quinone), mitochondrial (Rattus norvegicus, UniProt Q63707); test: Inhibition of rat DHODH
[9] = test system: THP-1; test: Antiproliferative activity against human THP-1 cells assessed as reduction in cell viability measured after 72 hrs; assay type: functional, cell-based; settings: THP-1, 72 h
[10] = target: Cytochrome P450 2C9 (Homo sapiens, UniProt P11712); test: Inhibition of CYP2C9 in human liver microsomes incubated for 10 mins by LC-MS/MS analysis; assay type: ADME, Microsome
[11] = Half life in Sprague-Dawley rat at 10 mg/kg, po or 2 mg/kg, iv measured upto 24 hrs by LC-MS/MS analysis; assay type: ADME, organism-based; settings: in vivo
[12] = Inhibition of dog DHODH; parameters: species or system Canis lupus familiaris
[13] = Metabolic stability in monkey liver microsome assessed as intrinsic clearance pretreated for 5 mins followed by NADPH addition and measured upto 60 mins by HPLC-MS/MS analysis; assay type: ADME, Macaca mulatta; settings: rhesus monkey, liver microsomes; time < 65 min; read-out: CLH
[14] = AUC(0 to infinity) in Sprague-Dawley rat at 10 mg/kg, po or 2 mg/kg, iv measured upto 24 hrs by LC-MS/MS analysis; assay type: ADME, organism-based; parameters: dose 10 mg/kg, time < 24 hrs, route po; settings: in vivo
[15] = Intrinsic clearance in dog hepatocytes measured per 10^6 cells; assay type: ADME, cell-based, Canis lupus familiaris, Hepatocyte
[16] = Volume of distribution at steady state in Sprague-Dawley rat at 10 mg/kg, po or 2 mg/kg, iv measured upto 24 hrs by LC-MS/MS analysis; assay type: ADME, organism-based; settings: in vivo
[17] = Metabolic stability in mouse liver microsome assessed as intrinsic clearance pretreated for 5 mins followed by NADPH addition and measured upto 60 mins by HPLC-MS/MS analysis; assay type: ADME; settings: liver microsomes, time < 65 min, read-out: CLH
[18] = test system: MOLM-13; test: Antiproliferative activity against human MOLM-13 cells incubated for 72 hrs by CellTiter-Glo assay; assay type: functional, cell-based; settings: MOLM-13, 72 h
[19] = Tmax in C57BL/6 mouse at 10 mg/kg, po or 2 mg/kg, iv measured upto 24 hrs by LC-MS/MS analysis; assay type: ADME, organism-based; settings: in vivo
[20] = Cmax in C57BL/6 mouse at 10 mg/kg, po or 2 mg/kg, iv measured upto 24 hrs by LC-MS/MS analysis; assay type: ADME, organism-based; parameters: time < 24 hrs, dose 10 mg/kg, route po; settings: in vivo
[21] = Intrinsic clearance in monkey hepatocytes measured per 10^6 cells; assay type: ADME, cell-based, Macaca mulatta, Hepatocyte; settings: rhesus monkey
[22] = target: Cytochrome P450 2C19 (Homo sapiens, UniProt P33261); test: Inhibition of CYP2C19 in human liver microsomes incubated for 10 mins by LC-MS/MS analysis; assay type: ADME, Microsome
[23] = AUC(0 to infinity) in C57BL/6 mouse at 10 mg/kg, po or 2 mg/kg, iv measured upto 24 hrs by LC-MS/MS analysis; assay type: ADME, organism-based; parameters: time < 24 hrs, dose 10 mg/kg, route po; settings: in vivo
[24] = target: Voltage-gated inwardly rectifying potassium channel KCNH2 (Homo sapiens, UniProt Q12809); test: Inhibition of hERG expressed in HEK293 cells by radioligand binding assay; assay type: toxicity, cell-based
[25] = Volume of distribution at steady state in C57BL/6 mouse at 10 mg/kg, po or 2 mg/kg, iv measured upto 24 hrs by LC-MS/MS analysis; assay type: ADME, organism-based; settings: in vivo
[26] = Solubility of compound at pH 7 by HPLC analysis; assay type: physicochemical; settings: buffer
[27] = Half life in C57BL/6 mouse at 10 mg/kg, po or 2 mg/kg, iv measured upto 24 hrs by LC-MS/MS analysis; assay type: ADME, organism-based; settings: in vivo
[28] = Intrinsic clearance in mouse hepatocytes measured per 10^6 cells; assay type: ADME, cell-based, Hepatocyte
[29] = Metabolic stability in rat liver microsome assessed as intrinsic clearance pretreated for 5 mins followed by NADPH addition and measured upto 60 mins by HPLC-MS/MS analysis; assay type: ADME; settings: liver microsomes, time < 65 min, read-out: CLH
[30] = Metabolic stability in dog liver microsome assessed as intrinsic clearance pretreated for 5 mins followed by NADPH addition and measured upto 60 mins by HPLC-MS/MS analysis; assay type: ADME, Canis lupus familiaris; settings: liver microsomes, time < 65 min, read-out: CLH

Chain of Voltage-gated inwardly rectifying potassium channel KCNH2 (Q12809 whole entry): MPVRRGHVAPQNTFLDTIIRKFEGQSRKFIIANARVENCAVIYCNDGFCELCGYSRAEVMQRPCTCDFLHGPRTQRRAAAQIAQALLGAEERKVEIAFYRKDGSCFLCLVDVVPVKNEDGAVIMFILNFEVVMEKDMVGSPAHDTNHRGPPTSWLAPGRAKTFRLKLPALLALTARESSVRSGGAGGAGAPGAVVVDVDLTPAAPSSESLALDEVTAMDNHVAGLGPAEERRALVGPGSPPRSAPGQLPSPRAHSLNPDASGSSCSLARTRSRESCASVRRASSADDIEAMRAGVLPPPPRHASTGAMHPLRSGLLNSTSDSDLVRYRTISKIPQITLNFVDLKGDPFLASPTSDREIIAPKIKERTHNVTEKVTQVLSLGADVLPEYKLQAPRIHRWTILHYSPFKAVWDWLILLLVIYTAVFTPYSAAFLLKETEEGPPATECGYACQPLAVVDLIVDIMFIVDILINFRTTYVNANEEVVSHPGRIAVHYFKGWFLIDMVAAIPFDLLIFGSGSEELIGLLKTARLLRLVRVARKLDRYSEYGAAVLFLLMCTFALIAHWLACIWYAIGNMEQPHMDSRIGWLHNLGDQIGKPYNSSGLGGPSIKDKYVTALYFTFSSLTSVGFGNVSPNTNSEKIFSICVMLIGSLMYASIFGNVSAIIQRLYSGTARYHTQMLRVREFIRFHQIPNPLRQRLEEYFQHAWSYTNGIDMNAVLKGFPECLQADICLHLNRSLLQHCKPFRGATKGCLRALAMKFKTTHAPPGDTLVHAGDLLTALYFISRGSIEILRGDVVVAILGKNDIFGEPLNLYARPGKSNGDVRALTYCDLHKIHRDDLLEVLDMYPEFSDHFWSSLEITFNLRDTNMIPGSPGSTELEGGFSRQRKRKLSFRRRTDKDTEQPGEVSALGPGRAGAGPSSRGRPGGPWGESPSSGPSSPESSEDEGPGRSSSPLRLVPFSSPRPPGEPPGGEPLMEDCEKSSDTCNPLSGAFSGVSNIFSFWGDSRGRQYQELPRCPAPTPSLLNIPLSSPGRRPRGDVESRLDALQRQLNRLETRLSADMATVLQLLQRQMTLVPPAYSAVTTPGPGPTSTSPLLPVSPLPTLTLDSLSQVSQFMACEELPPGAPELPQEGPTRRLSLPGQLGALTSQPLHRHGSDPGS
Chain of Cytochrome P450 2C9 (P11712 whole entry): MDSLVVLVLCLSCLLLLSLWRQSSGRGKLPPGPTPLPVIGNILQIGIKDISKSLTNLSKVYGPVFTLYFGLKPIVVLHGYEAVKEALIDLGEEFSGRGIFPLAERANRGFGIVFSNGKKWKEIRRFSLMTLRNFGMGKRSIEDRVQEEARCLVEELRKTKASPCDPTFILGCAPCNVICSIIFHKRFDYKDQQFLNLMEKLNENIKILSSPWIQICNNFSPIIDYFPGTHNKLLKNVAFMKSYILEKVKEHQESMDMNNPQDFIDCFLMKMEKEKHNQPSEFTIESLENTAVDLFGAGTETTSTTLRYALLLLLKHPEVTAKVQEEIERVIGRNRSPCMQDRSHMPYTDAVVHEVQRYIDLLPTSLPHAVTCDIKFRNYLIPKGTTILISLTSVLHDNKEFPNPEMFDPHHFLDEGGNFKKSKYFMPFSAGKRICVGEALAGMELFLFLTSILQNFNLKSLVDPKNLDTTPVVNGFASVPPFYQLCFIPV
Chain of Cytochrome P450 3A4 (P08684 whole entry): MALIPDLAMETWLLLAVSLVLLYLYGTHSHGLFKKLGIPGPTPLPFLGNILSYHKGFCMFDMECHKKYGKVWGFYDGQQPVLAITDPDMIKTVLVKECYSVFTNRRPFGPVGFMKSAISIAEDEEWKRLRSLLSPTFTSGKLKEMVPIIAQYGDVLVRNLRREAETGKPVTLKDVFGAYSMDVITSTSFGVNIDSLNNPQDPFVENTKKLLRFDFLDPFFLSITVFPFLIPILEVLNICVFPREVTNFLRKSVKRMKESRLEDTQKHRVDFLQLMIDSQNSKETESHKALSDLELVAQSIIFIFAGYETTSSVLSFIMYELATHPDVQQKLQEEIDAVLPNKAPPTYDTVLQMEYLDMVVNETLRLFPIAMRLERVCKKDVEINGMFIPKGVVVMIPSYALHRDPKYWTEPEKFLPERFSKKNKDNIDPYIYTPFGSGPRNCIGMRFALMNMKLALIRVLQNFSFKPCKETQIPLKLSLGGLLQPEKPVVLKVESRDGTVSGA
Chain of Dihydroorotate dehydrogenase (quinone), mitochondrial (Rattus norvegicus, UniProt Q63707) (Q63707 whole entry): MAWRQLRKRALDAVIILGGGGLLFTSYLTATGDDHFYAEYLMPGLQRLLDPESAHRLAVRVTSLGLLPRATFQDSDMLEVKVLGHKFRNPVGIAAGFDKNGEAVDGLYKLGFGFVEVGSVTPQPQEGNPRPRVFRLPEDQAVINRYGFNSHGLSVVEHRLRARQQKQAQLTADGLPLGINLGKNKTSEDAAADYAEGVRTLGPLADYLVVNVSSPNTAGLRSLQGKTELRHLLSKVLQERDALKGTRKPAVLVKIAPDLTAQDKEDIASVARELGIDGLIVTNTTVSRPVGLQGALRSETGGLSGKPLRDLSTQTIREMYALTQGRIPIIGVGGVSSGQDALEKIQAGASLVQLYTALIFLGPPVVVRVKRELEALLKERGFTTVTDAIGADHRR
Chain of Cytochrome P450 2C19 (P33261 whole entry): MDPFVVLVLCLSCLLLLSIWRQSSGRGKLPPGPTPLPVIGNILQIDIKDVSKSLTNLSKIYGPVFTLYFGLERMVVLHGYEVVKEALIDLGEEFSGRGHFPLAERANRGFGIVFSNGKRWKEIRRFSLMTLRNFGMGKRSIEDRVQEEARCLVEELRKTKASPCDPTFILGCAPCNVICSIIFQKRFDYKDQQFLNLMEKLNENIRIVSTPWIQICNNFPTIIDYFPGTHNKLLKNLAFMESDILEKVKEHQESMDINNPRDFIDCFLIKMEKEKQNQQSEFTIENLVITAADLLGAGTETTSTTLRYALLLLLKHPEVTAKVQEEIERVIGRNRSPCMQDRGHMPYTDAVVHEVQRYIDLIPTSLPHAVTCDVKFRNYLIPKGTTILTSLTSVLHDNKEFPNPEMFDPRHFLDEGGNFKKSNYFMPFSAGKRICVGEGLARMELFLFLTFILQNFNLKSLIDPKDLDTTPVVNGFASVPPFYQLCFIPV
Chain of Dihydroorotate dehydrogenase (quinone), mitochondrial (Homo sapiens, UniProt Q02127) (Q02127 whole entry, the tested form may be a part): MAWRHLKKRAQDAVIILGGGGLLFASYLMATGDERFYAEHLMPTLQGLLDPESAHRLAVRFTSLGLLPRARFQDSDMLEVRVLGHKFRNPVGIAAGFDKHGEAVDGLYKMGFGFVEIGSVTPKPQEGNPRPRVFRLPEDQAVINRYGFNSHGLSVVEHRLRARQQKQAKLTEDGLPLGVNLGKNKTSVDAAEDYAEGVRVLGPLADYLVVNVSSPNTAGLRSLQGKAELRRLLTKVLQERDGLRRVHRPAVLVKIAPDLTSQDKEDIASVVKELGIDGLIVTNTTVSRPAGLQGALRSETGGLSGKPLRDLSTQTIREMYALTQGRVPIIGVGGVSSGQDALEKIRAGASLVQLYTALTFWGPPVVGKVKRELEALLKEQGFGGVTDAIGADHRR

CLH [1]	bioavailability [2]	IC50 [3]	fraction unbound at 1 µM [4]	Kd [5]	IC50 [6]	IC50 [7]	IC50 [8]	IC50 [9]	IC50 [10]	half-life [11]	IC50 [12]	CLint scaled [13]	AUC(0-inf) [14]	CLH [15]	Vdss [16]	CLint scaled [17]	IC50 [18]	Tmax [19]	Cmax [20]	Compound	further results
5.2 µL/min/1e6 cells	103%	> 10 µM	0.33	3.3 nM	> 10 µM	> 10 µM	1580 nM	5 nM	> 10 µM	120 min	8.5 nM	4 mL/min/kg	9210 ng·h/mL	8.3 µL/min/1e6 cells	2.3 L/kg	5.7 mL/min/kg	2 nM	25.2 min	4050 ng/mL	CCn1c(CO)nn(-c2nc(O[C@@H](C)C(F)(F)F)c(C(=O)Nc3c(C)ccnc3Cl)cc2F)c1=O	CLH [21]: 4 µL/min/1e6 cells; IC50 [22]: > 10 µM; AUC(0-inf) [23]: 16100 ng·h/mL; IC50 [24]: > 10 µM; Vdss [25]: 1.3 L/kg; solubility [26]: > 400 µM; half-life [27]: 138 min; CLH [28]: 5.7 µL/min/1e6 cells; CLint scaled [29]: 5.2 mL/min/kg; CLint scaled [30]: 8.3 mL/min/kg
6.2 µL/min/1e6 cells	110%	> 10 µM	0.042	1.1 nM	> 10 µM	> 10 µM	130 nM	1.4 nM	> 10 µM	240 min	4.2 nM	5.3 mL/min/kg	23800 ng·h/mL	86 µL/min/1e6 cells	2.2 L/kg	5.5 mL/min/kg	0.4 nM	60 min	3810 ng/mL	CCn1c(CO)nn(-c2nc(O[C@@H](C)C(F)(F)F)c(C(=O)Nc3c(C)cnc(OC)c3Cl)cc2F)c1=O	CLH [21]: 5.3 µL/min/1e6 cells; IC50 [22]: > 10 µM; AUC(0-inf) [23]: 25000 ng·h/mL; IC50 [24]: > 10 µM; Vdss [25]: 2.4 L/kg; solubility [26]: 5 µM (≈ 2.74 µg/mL); half-life [27]: 300 min; CLH [28]: 5.5 µL/min/1e6 cells; CLint scaled [29]: 6.2 mL/min/kg; CLint scaled [30]: 86 mL/min/kg

— ChEMBL document CHEMBL5137081, “N-Heterocyclic 3-Pyridyl Carboxamide Inhibitors of DHODH for the Treatment of Acute Myelogenous Leukemia” (J Med Chem, 2022)
